Source: ChEMBL document CHEMBL4145580, “Sesquiterpenoids from Chloranthus anhuiensis with Neuroprotective Effects in PC12 Cells” (J Nat Prod, 2018)
The source made the active and inactive calls. The rule behind the calls is not given here.

What follows are molecules tested against RAC-alpha serine/threonine-protein kinase (Rattus norvegicus) (UniProt P47196) (assay: Increase in Akt phosphorylation in glutamate-induced rat PC12 cells at 10 to 40 uM measured after 24 hrs by Western blot analysis).
Sequence of RAC-alpha serine/threonine-protein kinase (Rattus norvegicus) (P47196 whole entry): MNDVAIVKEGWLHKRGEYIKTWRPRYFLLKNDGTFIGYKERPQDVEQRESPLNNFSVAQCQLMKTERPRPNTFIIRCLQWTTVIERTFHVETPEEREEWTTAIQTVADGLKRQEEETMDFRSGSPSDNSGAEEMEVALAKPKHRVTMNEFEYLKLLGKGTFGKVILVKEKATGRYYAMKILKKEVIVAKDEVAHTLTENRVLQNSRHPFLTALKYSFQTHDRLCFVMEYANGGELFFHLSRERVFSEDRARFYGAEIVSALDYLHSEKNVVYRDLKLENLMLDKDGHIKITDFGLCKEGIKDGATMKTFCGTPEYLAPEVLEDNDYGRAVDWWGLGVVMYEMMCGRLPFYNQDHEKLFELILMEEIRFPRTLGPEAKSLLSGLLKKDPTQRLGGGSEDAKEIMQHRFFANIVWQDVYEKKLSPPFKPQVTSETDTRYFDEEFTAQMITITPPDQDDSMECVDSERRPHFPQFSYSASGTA

Compound | Activity
CC(=O)OC[C@@H]1[C@H]2C[C@H]2[C@]2(C)C=C3OC(=O)C(CO)=C3C[C@@H]12 | Active

The molecules below were run on PC-12 (assay: Neuroprotective activity against glutamate-induced neuronal cell death in rat PC12 cells assessed as increase in cell viability pretreated for 2 hrs followed by glutamate challenge measured after 24 hrs by MTT assay).
Assay type: functional, cell-based

Compound | Activity | EC50 [µM]
C=C1[C@H](O)CC[C@@]2(C)C[C@@]3(O)OC(=O)C(C)=C3C[C@H]12 | inactive | –
C=C[C@]1(C)C[C@@H]2OC(=O)C(C)=C2C[C@H]1C(=C)C [ISOGERMAFURENOLIDE] | – | 24.3
C=C1CCC[C@]2(C)C[C@]3(O)OC(=O)C(C)=C3C[C@@H]12 [ATRACTYLENOLIDE III] | inactive | 36.3
CC1=C2C(=O)c3c(C)coc3[C@@H](O)[C@]2(C)[C@@H](O)CC1 | inactive | –
Cc1coc2c1C(=O)[C@H]1O[C@]1(C)CC[C@@H](O)[C@](C)(O)C2 | – | 70.3
CC1=C2C[C@@H]3[C@](C)(CCC[C@]3(C)O)C[C@]2(O)OC1=O | inactive | –
CC1=C2C[C@@]3(C)[C@H](C[C@@]2(O)OC1=O)C(=O)CC[C@@H]3C | inactive | –
C=C1CCC[C@]2(C)C(=O)c3occ(C)c3C[C@@H]12 | – | 119
Cc1coc2c1C(=O)[C@@H]1[C@@](C)(C2)C(=O)CC[C@@]1(C)O | – | 107
CC1=C2C(=O)[C@@](O)(C(C)C)CC[C@@]2(C)CCC1=O | – | 132
CC1=C2C(=O)c3c(C)coc3C[C@@]2(C)C=CC1=O | – | 106
CC1=C(C[C@@H]2OC(=O)[C@@H](C)CC/C=C\2C)C(=O)OC1 | inactive | –
Cc1coc2c1C(=O)[C@@H]1[C@@](C)(C2)[C@H](O)CC[C@@]1(C)O | inactive | –
C=C(C)[C@@H]1CC[C@]2(C)C(=C(C)C(=O)C[C@H]2O)C1 | inactive | –
CC(=O)OC[C@@H]1[C@H]2C[C@H]2[C@]2(C)C=C3OC(=O)C(C)=C3C[C@@H]12 | inactive | –
Cc1coc2c1C(=O)[C@H]1[C@@](C)(O)CCC(=O)[C@]1(C)C2 | inactive | –
C=C1CC[C@@H]2C(=C)C[C@@]3(O)OC(=O)C(C)=C3[C@@]2(O)C1 | – | 15.2
CC(=O)OC[C@@H]1[C@H]2C[C@H]2[C@]2(C)C=C3OC(=O)C(CO)=C3C[C@@H]12 | – | 3.3
CC1=C2C[C@@H]3[C@@](C)(C=C2OC1=O)CCC[C@@]3(C)O | inactive | –
COCCOC(=O)C1=C(C)NC(C)=C(C(=O)OC(C)C)C1c1cccc([N+](=O)[O-])c1 (centres undefined) [NIMODIPINE] | – | 97.3
C=C1CCC[C@]2(C)C=C3OC(=O)C(C)=C3C[C@@H]12 | inactive | –
C=C1CCC[C@]2(C)C=C3OC(=O)C(C)=C3[C@H](O)[C@@H]12 | inactive | –
Cc1coc2c1C[C@@H]1[C@](C)(CCC[C@@]1(C)O)C2 | inactive | –
Cc1coc2c1C(=O)[C@H]1[C@](C)(C2=O)[C@@H](O)CC[C@@]1(C)O | inactive | –
CC1=C2C[C@@]3(C)[C@H](C[C@H]2OC1=O)C(=O)CC[C@@H]3C | inactive | –
C=C1[C@H]2C[C@H]2[C@]2(COC(C)=O)C[C@@H]3OC(=O)C(C)=C3C[C@@H]12 | – | 89.5
CC1=C2C(=O)[C@@](O)(C(C)C)CC[C@]2(C)CCC1 | inactive | –
Cc1coc2c1C(=O)[C@H]1[C@@H](C)CC[C@H](O)[C@]1(C)C2=O | – | 51.4
CC1=C2C(=O)c3c(C)coc3C(=O)[C@@]2(C)[C@@H](O)CC1 | inactive | –
CC(=O)CCc1c(C)ccc2c1C(=O)OC2(C)C | – | 93.1

These molecules were tested on PC-12 (assay: Neuroprotective activity against glutamate-induced apoptotic cell death in rat PC12 cells assessed as apoptotic neurons at 10 to 40 uM pretreated with compound followed by glutamate challenge measured after 24 hrs by Hoechst 33258 staining based assay (reference value: 65.5%)).
Assay type: functional

Compound | Activity
CC(=O)OC[C@@H]1[C@H]2C[C@H]2[C@]2(C)C=C3OC(=O)C(CO)=C3C[C@@H]12 | 7.2 - 23.7%

The molecules below were run on PC-12 (assay: Neuroprotective activity against glutamate-induced apoptotic cell death in rat PC12 cells assessed as decrease in caspase-3 level at 10 to 40 uM measured after 24 hrs).
Assay type: functional, cell-based

Compound | Activity
CC(=O)OC[C@@H]1[C@H]2C[C@H]2[C@]2(C)C=C3OC(=O)C(CO)=C3C[C@@H]12 | Active
